From patent US20210260010A1, “COMPOSITIONS AND METHODS FOR THE REDUCTION OR TREATMENT OF INFLAMMATION” (AXCELLA HEALTH INC., priority 2018, published 2021) come the findings set out here.

The subject of one assay is IL-6. Kind of assay: IL-6 cytokine secretion by TNFα-stimulated primary human hepatic stellate cells (ELISA). In kind it is cell-based. To be noted: for IL-6 cytokine secretion, per-cell normalized, fold change from plasma amino acid background: primary human hepatic stellate cells, two donors, TNFα 3 ng/mL, 12 hours. The protocol:
Primary human hepatic stellate cells were obtained from Samsara Sciences and grown in Complete HSC Medium to […] confluence in T75 or T150 flasks below passage 10 were seeded into 96-well plates and incubated for 6 hours at 37° C., 5% CO2 in a humidified incubator. After 6 hours, plates were removed from the incubator washed with DPBS and pretreated (±single amino acid dropout, ±supplemental amino acid dose; see experiment for medium composition) overnight, ˜14-15 hours. After overnight pretreatment, the medium was removed from the cells, and the same pretreatment medium, now supplemented with 3 ng/mL TNFα was applied. Plates were incubated for 12 hours at 37° C., 5% CO2. After 12 hour stimulus with TNFα, supernatant was removed and frozen at −80° C. in two separate aliquots. Plates were washed and incubated with CCK-8 viability reagent (Dojindo) for 1 hour. Viability was measured on the Synergy plate reader. Immediately, the medium was removed and the plates were fixed for immunofluorescence staining.
Human CCL2/MCP1 and Human IL-6 were measured by ELISA (Human […] DuoSet ELISA, R&D Systems; Human IL-6 DuoSet ELISA, R&D Systems) at ⅕ and 1/20 dilution in 1× Reagent Diluent (Reagent Ancillary Kit 2, R&D Systems). Data were normalized to the specific per well cell density determined by Hoechst stained nuclei count.
Tables 39-42 show per-cell normalized IL-6 cytokine secretion in primary human hepatic stellate cells from two donors as a fold change from the plasma amino acid background. Statistical significance calculated by one-way ANOVA with Dunnett's multiple comparison test within each treatment group.
A general note: An ELISA detects its analyte on a solid surface through an enzyme-linked reagent.

The next assay concerns MCP1/CCL2. Kind of assay: MCP1/CCL2 secretion by primary human hepatocytes exposed to free fatty acids and TNF-α (ELISA). The note with it: for MCP1 expression relative to Control- Donor 1, Mean: donor 1 hepatocytes; for MCP1 expression relative to Control- Donor 1, Mean / MCP1 expression relative to Control- Donor 2, Mean: FFA + TNF-α, baseline subtracted; for MCP1 expression relative to Control- Donor 2, Mean: donor 2 hepatocytes; for MCP1/CCL2 secretion (baseline subtracted): primary human hepatocytes from two healthy donors, FFA 250 uM + TNF-α 1 ng/ml. In kind it is cell-based. The method, then:
Hepatocyte lipotoxicity appears to be a central driver of hepatic cellular injury via oxidative stress and endoplasmic reticulum (ER) stress. The ability of amino acids to influence steatosis (lipid accumulation) and inflammation in hepatocytes was assessed using human primary hepatocytes (Lonza, TRL).
Primary hepatocytes lot nos. from two healthy human donors were seeded on day 0 at density of 6e04 cells in 96 well optical microplates (Thermofisher) in hepatocyte plating media (William's E medium (Gibco) supplemented with 10% heat-inactivated FBS (Atlanta Bio), 2 mM Glutamax (Gibco) and 0.2% Primocin (InVivoGen) and incubated for 6 hours at 37° C., 5% CO2. After 6 hours, cells were washed twice and incubated overnight at 37° C., 5% CO2 with Hepatocytes defined medium (Corning) supplemented with 2 mM Glutamax (Gibco) and 1× Penicillin/Streptomycin. On day 1, cells were washed twice and incubated for 24 h in the hepatocyte culture media in the same conditions described above.
On day 2, cells were washed twice with DPBS 1× (Gibco) and maintained in amino acid-free WEM (US Biologicals) containing a defined custom amino acid concentration based on the mean physiological concentrations in blood. The values are published in the Human Metabolome Database (Wishart D S, Tzur D, Knox C, et al., HMDB: the Human Metabolome Database. Nucleic Acids Res. January 2007; 35(Database issue):D521-6. 17202168; which is hereby incorporated by reference in its entirety). This custom media is supplemented with 11 mM Glucose, 0.272 mM Sodium Pyruvate, and a dose curve of defined amino acid compositions (i.e., vehicle, LIVRQ+N-acetylcysteine, LIVRQ, RQ+N-acetylcysteine, N-acetylcysteine alone, LIV, or individually with L-Leucine, L-Isoleucine, L-Valine, L-Arginine, L-Glutamine, and L-Cysteine) at various ranges of concentrations. Cells were maintained in this defined media for 24 hours at 37° C., 5% CO2.
After pre-treatment, cells were exposed to free fatty acids (FFA) at 250 uM with a ratio of 2:1 (Oleate:Palmitate) supplemented with TNF-α (Thermofisher) at 1 ng/ml or vehicle. Cells were incubated with the FFAs mixture and the different amino acids combinations for 24 hours at 37° C., 5% CO2. After 24 hours incubation, media was removed for cytokine analysis and replaced by fresh media containing the same stimulus conditions and amino acid concentrations. Cells were incubated for an additional 48 hours for a total of 72 hours of FFA and TNFα stimulation.
Human CCL2 (MCP-1) was measured by ELISA (Human […] DuoSet ELISA, R&D Systems) at ⅕ or 1/10 dilution in 1× Reagent Diluent (Reagent Ancillary Kit 2, R&D Systems). Data were normalized to the specific per well cell density determined by nuclei count stained by Hoechst 3342 (Life technologies) in the fluorescence microscopy described below.

Setting [1] is: Conc. 234 μM (baseline comparator).

As for `CC(=O)N[C@@H](CS)C(=O)O` [NAC, N-acetylcysteine], the “Fold Change IL-6 Secretion Normalized Per Cell” value in the assay with IL-6 (donor 1, Conc. 5 X) was determined as 0.7141; with IL-6 (donor 1, Conc. 10 X) it was 0.7354; in the assay on IL-6 (donor 1, Conc. 20 X) it was 0.6121; in the assay on IL-6 (donor 1, Conc. 40 X), 0.5716; in the assay with IL-6 (donor 2, Conc. 5 X) it was 0.9161; with IL-6 (donor 2, Conc. 10 X) it was 0.9180. Further, the “Fold Change IL-6 Secretion Normalized Per Cell” value was 0.8111 in the assay on IL-6 (donor 2, Conc. 20 X) and 0.7064 with IL-6 (donor 2, Conc. 40 X). For the same molecule, the “IL-6 cytokine secretion, per-cell normalized, fold change from plasma amino acid background” value with IL-6 is listed as “reduced IL-6 secretion in both donors but was only statistically significant in one of two donors”. Further, the “MCP1 expression relative to Control- Donor 1, Mean” value in the assay on MCP1/CCL2 (Conc. 1000 μM) was −0.7629; in the assay on MCP1/CCL2 (Conc. 2500 μM), −2.498; in the assay on MCP1/CCL2 (Conc. 5000 μM) it was −10.8919; with MCP1/CCL2 (Conc. 10000 μM) it was −17.6065; in the assay with MCP1/CCL2 (Conc. 5 X) it was −0.7629; with MCP1/CCL2 (Conc. 10 X), −2.498. Besides, the entries for the “MCP1 expression relative to Control- Donor 1, Mean” value in the assay on MCP1/CCL2 (Conc. 20 X) and in the assay with MCP1/CCL2 (Conc. 40 X) were −10.8919 and −17.6065, respectively. Besides, the “MCP1 expression relative to Control- Donor 2, Mean” value with MCP1/CCL2 (Conc. 1000 μM) is listed as 1.602; in the assay on MCP1/CCL2 (Conc. 2500 μM), −4.0591; with MCP1/CCL2 (Conc. 5000 μM), −10.5725; in the assay with MCP1/CCL2 (Conc. 10000 μM), −28.4419; in the assay on MCP1/CCL2 (Conc. (X) 1000), 1.602; in the assay on MCP1/CCL2 (Conc. (X) 2500), −4.0591. Moreover, the “MCP1 expression relative to Control- Donor 2, Mean” value is given as −10.5725 in the assay on MCP1/CCL2 (Conc. (X) 5000) and −28.4419 in the assay with MCP1/CCL2 (Conc. (X) 10000). Further, in the assay with MCP1/CCL2, the “MCP1/CCL2 secretion (baseline subtracted)” value is “significantly decrease”.

On to `CC(C)[C@H](N)C(=O)O` [Valine, L-Valine], for which the “Fold Change IL-6 Secretion Normalized Per Cell” value with IL-6 (donor 1, Conc. 234 μM (plasma background, reference)) was found to be 1.0000; in the assay on IL-6 (donor 2, Conc. 234 μM (plasma background, reference)), 1.0000. For the same molecule, the “IL-6 cytokine secretion, per-cell normalized, fold change from plasma amino acid background” value with IL-6 is on record as “no significant effect”. For the same molecule, the “MCP1 expression relative to Control- Donor 1, Mean” value with MCP1/CCL2 (setting [1]) is on record as −2.4E−15; in the assay on MCP1/CCL2 (Conc. 4684 μM), 23.6867; in the assay with MCP1/CCL2 (Conc. 11710 μM) it was 77.73; with MCP1/CCL2 (Conc. 23420 μM) it was 14.17. The “MCP1 expression relative to Control- Donor 2, Mean” value is −1.4E−14 with MCP1/CCL2 (setting [1]), 10.79 with MCP1/CCL2 (Conc. 4684 μM), 38.25 in the assay with MCP1/CCL2 (Conc. 11710 μM) and −30.7921 with MCP1/CCL2 (Conc. 23420 μM). Also, the “MCP1/CCL2 secretion (baseline subtracted)” value in the assay with MCP1/CCL2 was “did not have an effect”.
